Several values for one entry are separate records, joined by “and”; a condition that tells them apart may be missing. Equal entries are not always repeated.
Assays:
[1] = 13C T1 measurements in vitro (inversion recovery, 11 T); format: physicochemical; conditions: PBS buffer, pH 7.5, containing 4% BSA, n=2
Experimental: ^13C T1 measurements in vitro: Measurements were made at 11 T (Bruker Avance II^+ 500 MHz spectrometer) using an inversion recovery sequence in samples containing approximately 10 mM [1-^13C] ethanol or 1 M ethanol, 10% D2O and 4% BSA (Sigma Aldrich), buffered with PBS to pH 7.5. A TR of 300 seconds and 16 delays between 1 and 200 seconds were used for measurements with [1-^13C, U-^2H5] ethanol and a TR of 50 seconds and 16 delays between 0.5 and 50 seconds were used for measurements of the natural abundance ^13C signal from 1M ethanol.

[2] = Hyperpolarisation by dynamic nuclear polarization and liquid state polarization measurement; format: physicochemical
Experimental: A 2:3 glycerol: [1-^13C] ethanol mixture, containing 15 mM trityl radical (OX063: tris (8-carboxy-2,2,6,6-tetra-(hydroxyethyl)-benzo-[1,2-4,50]-bis-(1,3)-dithiole-4-yl)-methyl, sodium salt; GE Healthcare, Little Chalfont, UK) and 1.5 mM gadoteric acid (DOTAREM; Guebert, Roissy, France), was polarized for approximately 120 minutes in a 3.35 T Hypersense polarizer (Oxford Instruments, Abingdon, Oxfordshire, UK) using irradiation at 94.124 GHz. The dissolution buffer (PBS, pH 7.5, 100 mg/L EDTA) was heated to 180°C and pressurized to 10 bar before dissolving the frozen polarized samples. The dissolved sample contained 110 mM [1-^13C] ethanol. For measurements of the liquid state polarization a sample of [1-^13C] ethanol was polarized and dissolved as described above. Two mL of the sample, containing approximately 60 mM [1-^13C] ethanol were injected into 2 mL of PBS buffer, pH 7.4 in a 10 mm NMR tube placed inside a vertical bore 9.4 T NMR spectrometer with a broadband probe tuned to ^13C (Varian NMR Instruments, Palo Alto, CA, U.S.). Immediately following injection and approximately 9 seconds after dissolution, 180 single transient spectra, with a nominal pulse flip angle of 6° and 8 kHz spectral width, were acquired with a TR of 1 second. Three 90° pulses were then applied to eliminate the remaining hyperpolarisation. A ^13C spectrum (the sum of 128 transients) was then acquired using a 6° pulse, a spectral width of 8 kHz, and a TR of 300 seconds. The temperature of the sample was kept at 37°C. The liquid state polarization was calculated from the ratio of the maximal integrated intensity of the hyperpolarised [1-^13C] ethanol signal to the integrated intensity of the thermal equilibrium signal corrected for the number of transients.

[3] = Measurement of blood ethanol level (13C MRS on plasma samples); format: in vivo, mice; conditions: for ethanol concentration in plasma: plasma withdrawn 75 seconds after start of i.v. injection of 10 µl per g body weight of 110 mM ethanol
Experimental: Measurement of blood ethanol level: An appropriate volume of [2-^13C] ethanol, polarized and dissolved to the same concentration as [1-^13C] ethanol, was injected into the tail vein of animals that had been anesthetized for 30-45 minutes. Blood was withdrawn by cardiac puncture, which began 75 seconds after the start of ethanol injection and was completed within 30 seconds. Individual blood samples were transferred into separate BD Microtainer FE micro-collection tubes (BD, Franklin Lakes, NJ, US), centrifuged at 800 g and the plasma removed and frozen in liquid nitrogen. For NMR spectroscopy, plasma samples were thawed and diluted in 200 mM PBS in D2O, pH 7.5. The buffer contained 100 mM TMSP (2,2,3,3-D4 sodium-3-trimethylsilylpropionate) as an intensity and chemical shift standard (Cambridge Isotope Laboratories, Inc. Andover MA, US). ^13C spectra (the sum of 1024 transients) were acquired under fully relaxed conditions at 125 MHz (Bruker Avance II^+ 500 MHz spectrometer) into 25,294 data points using a 90° pulse, a sweep width of 5 kHz, and a TR of 35 seconds. Integrated intensities of the 2-^13C ethanol and 2-^13C acetate resonances were normalized to that of TMSP and multiplied by the methyl ^13C concentration in 100 mM TMSP (3.33 mM) in order to convert to acetate or ethanol concentrations.

[4] = target: T1, ALDH2 (Mus musculus, UniProt P47738); test: ALDH2 activity assay in liver extracts of treated animals; format: biochemical, mice; conditions: 24 hours after 600 mg/kg body weight disulfiram, versus control animals
T1 construct: animals were killed and their livers rapidly excised, freeze-clamped and stored at - 80°C before homogenization and enzyme assay; from tissue; host or cells: Triton X-100 extract of freeze-clamped mouse liver
T1 sequence (P47738 20-519): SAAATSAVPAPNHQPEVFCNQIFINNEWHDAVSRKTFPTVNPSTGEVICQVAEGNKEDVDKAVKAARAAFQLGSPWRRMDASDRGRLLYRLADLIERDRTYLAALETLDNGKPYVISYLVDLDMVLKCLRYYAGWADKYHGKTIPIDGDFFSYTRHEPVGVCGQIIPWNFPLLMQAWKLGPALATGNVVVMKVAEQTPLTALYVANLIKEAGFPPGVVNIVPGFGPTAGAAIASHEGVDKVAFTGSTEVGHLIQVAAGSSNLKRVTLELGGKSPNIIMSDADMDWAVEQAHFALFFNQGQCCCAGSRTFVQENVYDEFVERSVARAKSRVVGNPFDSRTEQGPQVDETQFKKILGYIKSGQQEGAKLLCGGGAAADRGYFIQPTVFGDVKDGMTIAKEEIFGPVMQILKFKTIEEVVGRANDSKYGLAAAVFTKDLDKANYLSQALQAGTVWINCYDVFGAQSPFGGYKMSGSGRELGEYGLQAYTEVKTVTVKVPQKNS
Experimental: Animals were given 100 mg/kg or 600 mg/kg body weight of disulfiram as a suspension in 5% w/v of gum arabicum, by oral gavage (Spielman, D.M., Mayer, D., Yen, Y.F., Tropp, J., Hurd, R.E., Pfefferbaum, A., "In vivo measurement of ethanol metabolism in the rat liver using magnetic resonance spectroscopy of hyperpolarised [1-13C]pyruvate.", Magn.Reson.Med. 2009; 62: 307-313). ^13C MRS experiments were performed approximately 24 hours after drug administration. In some experiments, shortly after completion of MRS measurements, animals were killed and their livers rapidly excised, freeze-clamped and stored at - 80°C before homogenization and enzyme assay.
Liver Tissue Extraction: Freeze-clamped livers were homogenized using a manual Potter S homogenizer (Sartorius, Epsom, UK) in 7 volumes (mL per gram wet weight of liver) of ice-cold extraction buffer (50 mM Tris-HCl, pH 7.4 containing 0.25 M sucrose, 0.1 % v/v 2-mercaptoethanol, 1 mM EDTA and protease inhibitor cocktail (Roche)). Ten strokes of 5 seconds (each followed by a 5 second pause) at 1000 r.p.m. were used. […]
ALDH2 activity assay: The assay mixture containing 0.5 mM NAD^+, 0.1 % v/v of 2-mercaptoethanol, 200 mM KCl in 100 mM sodium pyrophosphate buffer, pH 9.0. […] The formation of NADH was measured for 5 minutes after substrate addition as an increase in absorbance at 340 nm using a Tecan Sunrise 96 well plate reader. […]

[5] = target: T1, ALDH2; test: In vivo 13C MRS of acetate production from hyperpolarised [1-13C, U-2H5]ethanol in liver after disulfiram treatment; design: species or system mice; conditions: approximately 24 hours before MRS
From the text: All animal experiments were approved by local ethical review committees and performed in accordance with the Animals (Scientific Procedures) Act of 1986. Female CD1 mice (6-8 weeks old) were used in all experiments. Animals were anaesthetized using 3 % isoflurane vapor (Isoflo, Abbotts Laboratories Ltd, Maidenhead, UK) in an oxygen/air mixture. Anesthesia was maintained during the MR experiments with 1-2 % isoflurane vapor in an oxygen/air mixture delivered via a face mask.
In vivo NMR spectroscopy: A catheter was inserted in a tail vein and the mouse placed in a heated cradle. Throughout the experiment animal breathing rate and core body temperature were monitored using a Biotrig physiological monitor (Small Animal Instruments, Stony Brook, NY), which were within the range of 60-100 bpm and 36-37°C, respectively. A 20 mm diameter surface coil (Rapid Biomedical GmbH, Rimpar, Germany) was placed over the liver and the entire assembly placed in a ^13C/^1H volume coil (Rapid Biomedicals, Germany), in a 7T horizontal bore magnet (Varian, Palo Alto, CA). Livers were localized in transverse ^1H images, acquired using a spin-echo pulse sequence (TR, 1.5 s; echo time (TE), 10 ms; field of view, 40 mm x 40 mm; data matrix, 128 x 128; slice thickness, 2 mm; 15 slices). […] All data were phase and baseline corrected and the signal integrals for ethanol and acetate measured. […]

[2H]C([2H])([2H])[13C]([2H])([2H])O [[1-^13C, U-^2H5]ethanol]
^13C T1 [1]: 56 s
polarization buildup time constant of dynamic nuclear polarization ([2]; 3.35 T Hypersense polarizer, n=3): 41.2 ± 5.5 min
T1 calculated from the decay of the polarization ([2]; hyperpolarised sample in PBS, 9.4 T, 37°C, SD, n=3): 53.7 ± 3.2 s
liquid state polarization ([2]; measured approximately 9 seconds after dissolution): 14.1 ± 3.3%

[13CH3]CO [[2-^13C] ethanol]
[1-^13C] acetate concentration in plasma ([3]; plasma withdrawn 75 seconds after start of ethanol injection, SD, n=3): 0.93 ± 0.29 mM
ethanol concentration in plasma ([3]; SD, n=3): 1.73 ± 0.48 mM

CCO [ethanol]
expected ethanol concentration at equilibrium ([3]; calculated for 10 µl per g body weight of 110 mM ethanol, assuming water is approximately 74% of body weight): approximately 1.5 mM
ethanol concentration in plasma ([3]; SD, n=3): 1.73 mM
^13C T1 [1]: 9.9 s

CCN(CC)C(=S)SSC(=S)N(CC)CC [disulfiram]
decrease of ALDH2 activity in liver extracts [4]: 68%
decrease of the maximum acetate signal (normalized to the maximum ethanol signal) ([5]; disulfiram 100 mg/kg by oral gavage, n=1): approximately 43%
decrease of the maximum acetate signal (normalized to the maximum ethanol signal) ([5]; disulfiram 600 mg/kg body weight by oral gavage, SD, n=3): 79 ± 8% and ~79%

Source: EP2891500B1, “Contrast agent for determination of aldehyde dehydrogenase (ALDH) activity” (Cambridge Enterprise Limited, priority 2014, dated 2015)
